Measured values reported in patent EP0745595A1, “3-(3-Aryloxyphenyl)-1-(substituted methyl)-s-triazine-2,4,6-oxo or thiotrione herbicidal agents” (American Cyanamid Company, priority 1995, dated 1996).

Key:
Type in all cases: in vivo
CASSIA OBTUSIFOLIA, L. [1] = test: Preemergence herbicidal evaluation, CASOB (Sicklepod); details: rated four to five weeks after treatment
In short: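 Preemergence herbicidal activity against sicklepod was assessed by planting seed mixed with potting soil atop about one inch of soil in pint cups. After treatment the cups were watered and handled per standard greenhouse practice. Tests ended four to five weeks later, with plant stand, vigor, malformation, size, chlorosis and overall appearance scored 0-9 relative to a control.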

CHENOPODIUM ALBUM, L. = test: Preemergence herbicidal evaluation, CHEAL (Lambsquarters, Common); details: rated four to five weeks after treatment
In short: (§1)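 Rated 0-9 by visual comparison with control (stand, vigor, malformation, size, chlorosis, overall appearance) four to five weeks after preemergence soil spray. Dose equivalent to about 0.125 to 0.50 kg per hectare, applied in aqueous acetone to freshly seeded cups kept in greenhouse.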

IPOMOEA SPP. = test: Preemergence herbicidal evaluation, IPOSS (Morningglory spp.); details: rated four to five weeks after treatment
In short: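 This preemergence greenhouse test scored herbicidal effect on morningglory planted in pint cups, with seed mixed into potting soil and placed over about one inch of soil. After treatment the cups were watered and kept under conventional care. At four to five weeks, plant stand, vigor, malformation, size, chlorosis and overall appearance were compared with a control and rated 0-9.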

[2] = tested on: ECHINOCHLOA CRUS-GALLI, (L) BEAU; test: Preemergence herbicidal evaluation, ECHCG (Barnyardgrass); details: rated four to five weeks after treatment
In short: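 In this preemergence herbicide test, cups holding seeds of ECHCG sown in potting soil over roughly one inch of soil were treated and then grown under conventional greenhouse care. Tests were ended four to five weeks after treatment, and injury was scored 0-9 from stand, vigor, malformation, size, chlorosis and overall appearance relative to a control.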

[3] = tested on: SETARIA VIRIDIS, (L) BEAU; test: Preemergence herbicidal evaluation, SETVI (Foxtail, Green); details: rated four to five weeks after treatment
Source text: (§2) Results of herbicide evaluation are expressed on a rating scale (0-9). The scale is based upon a visual observation of plant stand, vigor, malformation, size, chlorosis and overall plant appearance as compared with a control.
(§3) The preemergence herbicidal activity of the test compounds of the present invention is exemplified by the following tests in which the seeds of a variety of monocotyledonous and dicotyledonous plants are separately mixed with potting soil and planted on top of approximately one inch of soil in separate pint cups. […] The treated cups are then placed on greenhouse benches, watered and cared for in accordance with conventional greenhouse procedures. From four to five weeks after treatment, the tests are terminated and each cup is examined and rated according to the rating system provided in Example 40.
(§4) The compounds evaluated are reported by compound number given in Example 40.

[4] = tested on: GLYCINE MAX(L) MERR. CV. WILLIAMS; test: Preemergence herbicidal evaluation, GLXMAW (Soybean, Williams); details: rated four to five weeks after treatment
In short: as §1

[5] = tested on: ORYZA SATIVA, L. TEBONNET; test: Preemergence herbicidal evaluation, ORYSAT (Rice, Tebonnet); details: rated four to five weeks after treatment
Source text: as §2, §3, §4

ZEA MAYS L. = test: Preemergence herbicidal evaluation, ZEAMX (Corn, Field); details: rated four to five weeks after treatment
In short: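 Preemergence herbicidal activity on field corn: seeds in potting soil were sown atop roughly one inch of soil in separate pint cups, treated, and grown under standard greenhouse care. Four to five weeks post-treatment, stand, vigor, malformation, size, chlorosis and overall appearance were compared with a control and scored 0-9.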

[6] = tested on: ECHINOCHLOA ORYZOIDES (ARD.)FRITSCH; test: Preemergence weed control under flooded paddy conditions, ECHORC (Watergrass (Calif.)); details: preemergence, 3-4 weeks after treatment
In short: (§5)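 In undrained pots of silt loam flooded to 1.5-3 cm, compounds are pipetted into the water before emergence at the equivalent of about 0.5, 0.25, 0.125 and 0.063 kg/ha. Plants are scored 0-9 for stand, vigor, malformation, size and chlorosis at test end (3-4 weeks).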

[7] = tested on: CYPERUS SEROTINUS, ROTTB.; test: Preemergence weed control under flooded paddy conditions, CYPSE (Flatsedge); details: preemergence, 3-4 weeks after treatment
In short: as §5

SAGITTARIA PYGMAEA, L. = test: Preemergence weed control under flooded paddy conditions, SAGPY (Arrowhead (Pygmaea)); details: preemergence, 3-4 weeks after treatment
In short: as §5

[8] = tested on: ORYZA SATIVA, L. TEBONNET; test: Rice tolerance to post-transplant applications under flooded paddy conditions, ORYSAT (Rice, Tebonnet); details: post-transplant rice, 3-4 weeks after treatment
In short: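 Greenhouse pots of silt loam, each with two transplanted ten-day-old seedlings, are held under 1.5 to 3 cm of standing water. Three days later the compound is applied to the flooded surface at about 0.5, 0.25, 0.125 or 0.063 kg/ha. Damage is scored visually 0-9 after 3-4 weeks.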

[9] = tested on: AMBROSIA ARTEMISIIFOLIA, L.; test: Postemergence herbicidal evaluation, AMBEL (Ragweed, Common)
In short: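 Postemergence herbicidal activity on AMBEL (common ragweed) was assessed on two-week-old seedlings grown in jiffy flats. Treatment solutions of 50/50 acetone/water with 0.5% TWEEN®20 surfactant were sprayed at 40 psi. After four to five weeks in the greenhouse, plants were scored 0-9 against a control for stand, vigor, malformation, size, chlorosis and overall appearance, with multiple tests averaged.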

CASSIA OBTUSIFOLIA, L. [10] = test: Postemergence herbicidal evaluation, CASOB (Sicklepod); parameters: key to CASOB rating / Herbicidal effect rating, CASOB / CASOB: 0-9 visual rating scale vs untreated control
In short: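 Spray: acetone/water 50/50 + 0.5% TWEEN 20; rate ~0.125–0.500 kg/ha; nozzle 40 psi; ~2-wk seedlings. Read: visual 0–9 rating at 4–5 wk post-treatment vs control; replicate tests averaged.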

[11] = tested on: ECHINOCHLOA CRUS-GALLI, (L) BEAU; test: Postemergence herbicidal evaluation, ECHCG (Barnyardgrass); parameters: key to ECHCG rating / Herbicidal effect rating, ECHCG / ECHCG: 0-9 visual rating scale vs untreated control
In short: (§6)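 Application to seedlings around two weeks old: test compound in 50/50 acetone/water, 0.5% TWEEN 20, sprayed at 40 psi for roughly 0.125–0.500 kg/ha. Evaluation: 0–9 visual scale after 4–5 weeks, replicates averaged.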

[12] = tested on: SETARIA VIRIDIS, (L) BEAU; test: Postemergence herbicidal evaluation, SETVI (Foxtail, Green); parameters: key to SETVI rating / Herbicidal effect rating, SETVI / SETVI: 0-9 visual rating scale vs untreated control
In short: as §6

[13] = tested on: ABUTILON THEOPHRASTI, MEDIC.; test: Preemergence herbicidal evaluation, ABUTH (Velvetleaf); details: rated four to five weeks after treatment
Source text: as §2, §3, §4

[14] = tested on: AMBROSIA ARTEMISIIFOLIA, L.; test: Preemergence herbicidal evaluation, AMBEL (Ragweed, Common); details: rated four to five weeks after treatment
In short: as §1

[15] = tested on: TRITICUM AESTIVUM, CV. APOLLO; test: Preemergence herbicidal evaluation, TRZAWO (Wheat, Winter, CV. APOLLO); details: rated four to five weeks after treatment
In short: as §1

CYPERUS IRIA = test: Preemergence weed control under flooded paddy conditions, CYPIR (Rice Flatsedge); details: 0.500 kg/ha, preemergence, 3-4 weeks after treatment
In short: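 This preemergence test mimicked flooded paddy conditions: rice flatsedge propagules were sown in the upper 0.5 cm of silt loam in undrained 32 oz. containers (10.5 cm diameter), with water held 1.5 to 3 cm over the soil. After normal greenhouse care, plants were scored 0-9 for stand, vigor, malformation, size, chlorosis and appearance relative to controls.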

[…], PRESL. = Preemergence weed control under flooded paddy conditions, MOOVA (Monochoria); details: 0.500 kg/ha, preemergence, 3-4 weeks after treatment
In short: as §5

COC(=O)Cn1c(=O)[nH]c(=O)n(-c2cc(Oc3ccc(Cl)cc3Cl)ccc2[N+](=O)[O-])c1=O [Compound 14, Methyl 3-[5-(2,4-dichlorophenoxy)-2-nitrophenyl]tetrahydro-2,4,6-trioxo-s-triazine-1(2H)-acetate]
0.0: CASOB herbicidal rating (CASSIA OBTUSIFOLIA, L. [1]; Rate 0.125 kg/ha) | CASOB herbicidal rating (CASSIA OBTUSIFOLIA, L. [1]; Rate 0.250 kg/ha) | CASOB herbicidal rating (CASSIA OBTUSIFOLIA, L. [1]; Rate 0.500 kg/ha) | IPOSS herbicidal rating (IPOMOEA SPP.; Rate 0.125 kg/ha) | IPOSS herbicidal rating (IPOMOEA SPP.; Rate 0.250 kg/ha) | IPOSS herbicidal rating (IPOMOEA SPP.; Rate 0.500 kg/ha) | ECHCG herbicidal rating ([2]; Rate 0.125 kg/ha) | ECHCG herbicidal rating ([2]; Rate 0.250 kg/ha) | ECHCG herbicidal rating ([2]; Rate 0.500 kg/ha) | SETVI herbicidal rating ([3]; Rate 0.125 kg/ha) | SETVI herbicidal rating ([3]; Rate 0.250 kg/ha) | SETVI herbicidal rating ([3]; Rate 0.500 kg/ha) | GLXMAW herbicidal rating ([4]; Rate 0.125 kg/ha) | GLXMAW herbicidal rating ([4]; Rate 0.250 kg/ha) | GLXMAW herbicidal rating ([4]; Rate 0.500 kg/ha) | ZEAMX herbicidal rating (ZEA MAYS L.; Rate 0.125 kg/ha) | ZEAMX herbicidal rating (ZEA MAYS L.; Rate 0.250 kg/ha) | ZEAMX herbicidal rating (ZEA MAYS L.; Rate 0.500 kg/ha) | Herbicidal effect rating, ECHORC ([6]; 0.063 kg/ha) | Herbicidal effect rating, ECHORC ([6]; 0.125 kg/ha) | Herbicidal effect rating, ECHORC ([6]; 0.250 kg/ha) | Herbicidal effect rating, ECHORC ([6]; 0.500 kg/ha) | Herbicidal effect rating, CYPSE ([7]; 0.063 kg/ha) | Herbicidal effect rating, CYPSE ([7]; 0.125 kg/ha) | Herbicidal effect rating, CYPSE ([7]; 0.250 kg/ha) | Herbicidal effect rating, CYPSE ([7]; 0.500 kg/ha) | Herbicidal effect rating, SAGPY (SAGITTARIA PYGMAEA, L.; 0.063 kg/ha) | Herbicidal effect rating, SAGPY (SAGITTARIA PYGMAEA, L.; 0.125 kg/ha) | Herbicidal effect rating, SAGPY (SAGITTARIA PYGMAEA, L.; 0.250 kg/ha) | Herbicidal effect rating, SAGPY (SAGITTARIA PYGMAEA, L.; 0.500 kg/ha) | Herbicidal effect rating, ORYSAT ([8]; 0.063 kg/ha) | Herbicidal effect rating, ORYSAT ([8]; 0.125 kg/ha) | Herbicidal effect rating, ORYSAT ([8]; 0.250 kg/ha) | Herbicidal effect rating, ORYSAT ([8]; 0.500 kg/ha)
1.0: ORYSAT herbicidal rating ([5]; Rate 0.125 kg/ha) | ORYSAT herbicidal rating ([5]; Rate 0.250 kg/ha) | ORYSAT herbicidal rating ([5]; Rate 0.500 kg/ha)
9.0: CHEAL herbicidal rating (CHENOPODIUM ALBUM, L.; Rate 0.125 kg/ha) | CHEAL herbicidal rating (CHENOPODIUM ALBUM, L.; Rate 0.250 kg/ha) | CHEAL herbicidal rating (CHENOPODIUM ALBUM, L.; Rate 0.500 kg/ha)

Cn1c(=O)n(CC(N)=O)c(=O)n(-c2cccc(Oc3ccc(C(F)(F)F)cc3Cl)c2)c1=O [Compound 46, 3-{5-[(2-Chloro-α,α,α-trifluoro-p-tolyl)-oxy]phenyl}tetrahydro-5-methyl-2,4,6-trioxo-s-triazine-1(2H)-acetamide]
1.0: GLXMAW herbicidal rating ([4]; Rate 0.125 kg/ha) | GLXMAW herbicidal rating ([4]; Rate 0.250 kg/ha) | GLXMAW herbicidal rating ([4]; Rate 0.500 kg/ha) | TRZAWO herbicidal rating ([15]; Rate 0.125 kg/ha) | TRZAWO herbicidal rating ([15]; Rate 0.250 kg/ha) | TRZAWO herbicidal rating ([15]; Rate 0.500 kg/ha)
0.0: AMBEL rating ([9]; Rate 0.125 kg/ha) | AMBEL rating ([9]; Rate 0.250 kg/ha) | AMBEL rating ([9]; Rate 0.500 kg/ha) | CASOB rating (CASSIA OBTUSIFOLIA, L. [10]; Rate 0.125 kg/ha) | CASOB rating (CASSIA OBTUSIFOLIA, L. [10]; Rate 0.250 kg/ha) | CASOB rating (CASSIA OBTUSIFOLIA, L. [10]; Rate 0.500 kg/ha) | ECHCG rating ([11]; Rate 0.125 kg/ha) | ECHCG rating ([11]; Rate 0.250 kg/ha) | ECHCG rating ([11]; Rate 0.500 kg/ha) | SETVI rating ([12]; Rate 0.125 kg/ha) | SETVI rating ([12]; Rate 0.250 kg/ha) | SETVI rating ([12]; Rate 0.500 kg/ha) | ABUTH herbicidal rating ([13]; Rate 0.125 kg/ha) | ABUTH herbicidal rating ([13]; Rate 0.250 kg/ha) | ABUTH herbicidal rating ([13]; Rate 0.500 kg/ha) | AMBEL herbicidal rating ([14]; Rate 0.125 kg/ha) | AMBEL herbicidal rating ([14]; Rate 0.250 kg/ha) | AMBEL herbicidal rating ([14]; Rate 0.500 kg/ha) | CASOB herbicidal rating (CASSIA OBTUSIFOLIA, L. [1]; Rate 0.125 kg/ha) | CASOB herbicidal rating (CASSIA OBTUSIFOLIA, L. [1]; Rate 0.250 kg/ha) | CASOB herbicidal rating (CASSIA OBTUSIFOLIA, L. [1]; Rate 0.500 kg/ha) | IPOSS herbicidal rating (IPOMOEA SPP.; Rate 0.125 kg/ha) | IPOSS herbicidal rating (IPOMOEA SPP.; Rate 0.250 kg/ha) | IPOSS herbicidal rating (IPOMOEA SPP.; Rate 0.500 kg/ha) | ECHCG herbicidal rating ([2]; Rate 0.125 kg/ha) | ECHCG herbicidal rating ([2]; Rate 0.250 kg/ha) | ECHCG herbicidal rating ([2]; Rate 0.500 kg/ha) | SETVI herbicidal rating ([3]; Rate 0.125 kg/ha) | SETVI herbicidal rating ([3]; Rate 0.250 kg/ha) | SETVI herbicidal rating ([3]; Rate 0.500 kg/ha) | Herbicidal effect rating, ECHORC ([6]; 0.500 kg/ha) | Herbicidal effect rating, CYPIR (CYPERUS IRIA) | Herbicidal effect rating, CYPSE ([7]; 0.500 kg/ha) | Herbicidal effect rating, MOOVA ([…], PRESL.) | Herbicidal effect rating, SAGPY (SAGITTARIA PYGMAEA, L.; 0.500 kg/ha) | Herbicidal effect rating, ORYSAT ([8]; 0.500 kg/ha)
